ChEMBL document CHEMBL3751739, “Investigating the generation of hydrogen sulfide from the phosphonamidodithioate slow-release donor GYY4137” (Medchemcomm, 2015)
The source made the active and inactive calls. The rule behind the calls is not given here.

Experiments:
RAW264.7 [1] = details: Mus musculus, at 200 µM
Description: Antiinflammatory activity in mouse RAW264.7 cells assessed as inhibition of LPS-induced NO production at 200 uM preincubated for 1 hr before LPS challenge measured after 24 hrs by Griess method

RAW264.7 [2] = details: Mus musculus, at 200 µM; remark: listed apart in the source
Description: Antiinflammatory activity in mouse RAW264.7 cells assessed as inhibition of LPS-induced PGE2 production at 200 uM preincubated for 1 hr before LPS challenge measured after 24 hrs by ELISA

[3] = Induction of H2S release in phosphate buffer at 200 uM using 5,5'-dithiobis-(2-nitrobenzoic acid)
[4] = Cytotoxicity against human Jurkat T cells assessed as reduction in cell viability at 200 uM after 24 hrs by tryphan blue assay

**Q.** Which inhibition (RAW264.7 [1]) does the source give for COc1ccc(P([O-])(=S)N2CCOCC2)cc1.[K+] (centres undefined) here?
**A.** The inhibition was “inactive”.

**Q.** What about the inhibition (RAW264.7 [2]) of the same compound?
**A.** The inhibition was “inactive”.

**Q.** What about the Activity [3] of the same compound?
**A.** Its Activity is “Not Active”.

**Q.** And the Activity [4]?
**A.** The Activity was “Non-toxic”.
